Converted amounts (≈) assume the structure as drawn.
What was measured:
Rosi cells [1] = experiment: Annexin V assay; format: cell-based, human; conditions: 5-20 μM, 48 hours
Description: (§1) MCF7, MDA-MB-231 and Rosi cells were treated with LB-100 and Compound 2 at 5-20 μM concentrations. After 48 hours, cells were lifted with Accutase and washed twice with PBS (pH 7.4) with 10% FBS. Cells were resuspended in annexin V binding buffer (10 mM HEPES (pH 7.4), 140 mM NaCl and 2.5 mM CaCl2)) and labeled with FITC-anti-Annexin V and 7-AAD (Biolegend, FITC Annexin V Apoptosis Detection Kit with 7-AAD, catalog #640922). Cell surface annexin V expression was assessed with flow cytometry.

MDA-MB-231 cells [2] = experiment: Annexin V assay; format: cell-based, human; conditions: 5-20 μM, 48 hours
Description: as §1

HS-5 cells = experiment: Cytotoxicity assay (calcein-AM); format: cell-based
Description: (§2) HS-5, HEK-293, MCF7, MDA-MB-231 and Rosi cells were seeded in 96-well optical bottom tissue culture plates (Corning, New York) at a density of 2.5×10^3 cells/well. After 24 hours, the media were changed to media containing LB-100 (Cayman Chemical Company, Ann Arbor, Michigan) or Compound 2 at various concentrations (50-0.31 μM). Control cells were given fresh media. After 48 hours the media were aspirated and plates were washed with warmed Dulbecco's phosphate-buffered saline (DPBS) with calcium and magnesium (Sigma-Aldrich, catalog #D1283). Cells were stained with 3 μM calcein-AM (AAT Bioquest, Pleasanton, California, catalog #22002) in DPBS for 30 minutes in the dark at 37° C. Plates were immediately read with a Biotek fluorescent plate reader (excitation 485 nm, emission 520 nm). The cytotoxicity assays were performed at least three times, each time with six replicates per condition.

HEK-293 cells = experiment: Cytotoxicity assay (calcein-AM); format: cell-based
Description: as §2

Rosi cells [3] = experiment: Cell cycle analysis (BrdU flow cytometry); format: cell-based, human; conditions: 20 μM, 24 hours
Description: (§3) MCF7, MDA-MB-231 and Rosi cells were seeded in 6-well tissue culture plates (Celltreat) at a density of 5×10^5 cells per well. After 24 hours, the DMEM was changed to media containing 20 μM LB-100 or Compound 2. Control cells were given fresh media. After 24 hours, cells were labeled with 50 μM bromodeoxyuridine (BrdU, BioGems, Westlake Village, California, catalog #5911439). Cells were lifted with 0.25% trypsin, 2.21 mM ethylenediaminetetraacetic acid (Corning catalog #25-053-CI) after 4 hours and fixed with 70% ethanol overnight at 4° C. Cells were pelleted and cellular DNA was denatured with HCl. After neutralization with 1 M Tris, pH 8.5, cells were labeled with FITC-anti-BrdU (Biolegend, San Diego, California, catalog #364104, 5 μL/100 μL cell suspension) and 7-aminoactinomycin-D (7-AAD, Biolegend, catalog #420404, 1 μL/100 μL cell suspension). Cells were analyzed with a Becton-Dickinson FACSymphony™ flow cytometer. Cell cycle analyses were performed three times.

MCF7 cells [4] = experiment: Cell cycle analysis (BrdU flow cytometry); format: cell-based, human; conditions: 20 μM, 24 hours
Description: as §3

MDA-MB-231 cells [5] = experiment: Cell cycle analysis (BrdU flow cytometry); format: cell-based, human; conditions: 20 μM, 24 hours
Description: as §3

Rosi cells [6] = experiment: Colony forming assay; format: cell-based, human; conditions: 50-3.25 μM, one week
Description: (§4) MCF7, MDA-MB-231 and Rosi cells were seeded in 96-well tissue culture plates (Celltreat, Pepperell, Massachusetts) at a density of 90 cells per well (Mayr et al. Int J Mol Sci. 2018; 19(3)). After 24 hours, the media were changed to media containing LB-100 or Compound 2 at various concentrations (50-3.25 μM). Control cells were given fresh media. After one week the media were aspirated and the wells were washed with PBS. Cells were stained with crystal violet solution (0.25 g crystal violet in 20% methanol) for 10 minutes. The wells were washed 6 times with PBS to remove excess crystal violet. Colonies were counted with an ECHO Revolve hybrid microscope at 1.5× magnification. There were ten replicates for each condition.

MCF7 cells [7] = experiment: Colony forming assay; format: cell-based, human; conditions: 50-3.25 μM, one week
Description: as §4

MDA-MB-231 cells [8] = experiment: Colony forming assay; format: cell-based, human; conditions: 50-3.25 μM, one week
Description: as §4

Rosi cells [9] = experiment: Cytotoxicity assay (calcein-AM); format: cell-based, human
Description: as §2, with “After 24 hours, the media were changed to media containing LB-100 (Cayman Chemical Company, Ann Arbor, Michigan) or Compound 2 at various concentrations (50-0.31 μM).” left out

MCF7 cells [10] = experiment: Cytotoxicity assay (calcein-AM); format: cell-based, human
Description: as §2

MDA-MB-231 cells [11] = experiment: Cytotoxicity assay (calcein-AM); format: cell-based, human; conditions: Homo sapiens, MDA-MB-231, 48 h, read-out: Log [μM] EC50 (converted)
Description: as §2

Kinetic solubility = format: physicochemical; conditions: 2% dimethylsulfoxide/PBS, aqueous buffer, kinetic from dmso stock; read-out: Max. Kinetic Solubility
From the text: (§5) There is no cause for concern at this stage since there are multiple strategies and reagents for enhancing aqueous solubility for animal in vivo studies (Savjani, K. T., A. K. Gajjar and J. K. Savjani, 2012, ISRN Pharm 2012: 195727.). […] While target tissue exposure is dependent on free, unbound fractions in the plasma, plasma protein binding can protect compounds from hepatic metabolism. Thus, in vivo metabolism and excretion are often determined by a balance between these two properties. In vivo half-life is a complicated property impacted upon by multiple factors and is difficult to predict. […] While these numbers are somewhat low for a drug candidate, they are acceptable for proof of concept tool molecules which can be given multiple times per day and at higher doses to saturate metabolism.

Rosi cells [12] = experiment: Western blots; format: cell-based, human; conditions: 20 μM, Compound 2 significant at 6 hours
Description: (§6) MCF7, MDA-MB-231 and Rosi cells were treated with Compound 1 or Compound 2 at a concentration of 20 μM in complete medium, and lysates were harvested after 2, 4, 6, 8 and 12 hours in radioimmunoprecipitation assay buffer containing protease inhibitors (Boster Bio, Pleasanton, California, catalog #AR1182-1) and phosphatase inhibitors (Santa Cruz Biotechnology catalog #sc-45044 and #sc-45045). Protein concentrations were measured with a bicinchoninic acid assay (G-Biosciences, Saint Louis, Missouri). Fifty micrograms of each lysate were used for bis-tris polyacrylamide gel electrophoresis. Resolved lysates were transferred to nitrocellulose membranes. Membranes were blocked with TBS with 5% bovine serum albumin before incubation with primary antibodies.
(§7) Antibodies obtained from Cell Signaling Technology (Danvers Massachusetts) were, anti-PP2Ac (catalog #2038, 1:1,000 dilution), anti-phospho-adenosine monophosphate-activated protein kinase (pAMPKα2 threonine 172, catalog #2535, 1:1,000 dilution). Antibodies obtained from Proteintech (Rosemont, Illinois) include anti-phospho-receptor-interacting serine/threonine protein kinase-1 antibodies (pRIPK1 serine 161 (catalog #66854-1-Ig, 1:1,000 dilution) and pRIPK1 serine 166 (catalog #28252-1-AP, 1:10,000 dilution), anti-mixed lineage kinase domain like pseudokinase (MLKL, catalog #66675-1-Ig, 1:5,000 dilution), anti-AMPKα2, anti-phospho-acetyl-coenzyme A carboxylase (pACC1 serine 79, catalog #29119-1-AP, 1:1,000 dilution), anti-ACC1 (catalog #21923-1-AP, 1:2,000 dilution) and anti-β-actin (catalog #66009-1-Ig, 1:50,000 dilution). The anti-RIPKI antibody was obtained from AbClonal (Woburn, Massachusetts, catalog #A7414, 1:750 dilution). The anti-phospho-MLKL antibody was obtained from R&D Systems (Minneapolis, Minnesota, 1:1,000 dilution). The LCMT-1 antibody was obtained from Origene (Rockville, Maryland, catalog #TA503127S, 1:2,000 dilution). Appropriate IR-dye secondary antibodies were used (Alexa Fluor® 790-conjugated anti-mouse (catalog #115-655-146, 1:50,000 dilution), Alexa Fluor® 680-conjugated anti-mouse (catalog #115-625-146, 1:50,000 dilution), and Alexa Fluor® 680-conjugated anti-rabbit (catalog #115-625-144, 1:50,000 dilution) were obtained from Jackson ImmunoResearch Laboratories (West Grove, Pennsylvania). Band densities were normalized to β-actin, the endogenous control. At least five replicates were used for statistical analyses.

MCF7 cells [13] = experiment: Western blots; format: cell-based, human; conditions: 20 μM, lysates after 2, 4, 6, 8 and 12 hours
Description: as §6, §7

MDA-MB-231 cells [14] = experiment: Western blots; format: cell-based, human; conditions: 20 μM, Compound 2 significant at 4 hours
Description: as §6, §7

Plasma protein binding = format: in vitro ADME; conditions: read-out: Plasma Protein Binding (bound fraction) (converted)
From the text: as §5

Plasma stability = format: in vitro ADME; conditions: mouse plasma; read-out: Plasma Stability (t1/2)
From the text: as §5

rhLCMT-1 = target: T1, rhLCMT-1 (Homo sapiens, UniProt Q9UIC8); experiment: rhLCMT-1 activity assay (dot immunoblot); format: biochemical; conditions: each inhibitor 50 μM; 20 μM SAM; 37° C. for 30 minutes
T1 construct: purchased SignalChem (Richmond, British Columbia, Canada)
Description: Recombinant human LCMT-1 (rhLCMT-1) and rhPP2Ac were obtained from SignalChem (Richmond, British Columbia, Canada). Methyltransferase assays were performed with 100 ng rhLCMT-1 and 91.62 ng rhPP2Ac (2:1 molar ratio) (28) in reaction buffer containing 20 mM Tris (pH 8.0), 50 mM NaCl, 1 mM EDTA. rhLCMT-1 was incubated with Compound 1 (Chemspace, San Jose, California), Compound 2 (Akos Consulting and Solutions, Amtsgericht, Freiburg, Germany) or sinefungin, a SAM analogue, (Active Motif, Carlsbad, California), each at 50 μM final concentration, for 10 minutes at room temperature. rhPP2Ac was added to the reactions with 20 μM (final concentration) SAM (New England Biolabs, Ipswich, Massachusetts, FIG. 9). […] Reactions were incubated at 37° C. for 30 minutes (FIG. 10). Because the inhibitors gave false positive results with the secondary reactions used in colorimetric and bioluminescent methyltansferase assays, LCMT-1 activity was assessed using dot immunoblots. Reactions were applied to nitrocellulose membranes (Cytiva, Marlborough, Massachusetts). […] Membranes were treated with infrared (IR)-dye anti-mouse antibody (Li-Cor, Lincoln, Nebraska, catalog #926-32210, 1:20,000 dilution) and densities were measured with Li-Cor Image Studio (version 5.2) software. rhLCMT-1 inhibition assays were performed three times, each time with five replicates for each condition.

[15] = Liver microsomal stability; format: in vitro ADME
From the text: as §5

T1 sequence (Q9UIC8 whole entry): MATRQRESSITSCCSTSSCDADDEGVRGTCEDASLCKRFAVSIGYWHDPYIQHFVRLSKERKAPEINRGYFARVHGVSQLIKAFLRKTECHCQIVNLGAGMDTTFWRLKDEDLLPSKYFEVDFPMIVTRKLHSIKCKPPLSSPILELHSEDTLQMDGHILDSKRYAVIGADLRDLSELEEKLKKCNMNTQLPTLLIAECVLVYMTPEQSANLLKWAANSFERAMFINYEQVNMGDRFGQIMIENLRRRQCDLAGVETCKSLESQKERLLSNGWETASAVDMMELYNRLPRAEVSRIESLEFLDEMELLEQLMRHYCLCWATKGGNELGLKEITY

With `CN1CCN(C(=O)C2C(C(=O)O)[C@H]3CC[C@@H]2O3)CC1` (some centres unmarked) [LB-100, reference compound] the “apoptosis (cell surface annexin V expression)” value (Rosi cells [1]) was “induced apoptosis”, the “apoptosis (cell surface annexin V expression)” value (MDA-MB-231 cells [2]) was “induced apoptosis” and the EC50 (HS-5 cells; HS5, 48 h, read-out: Log [μM] EC50 (converted)) was 36.3 µM. The “concentration at which cytotoxicity was significant” value (HS-5 cells; human, 48 h) was 20 µM, the “concentration at which survival was significantly inhibited” value (HEK-293 cells; HEK-293, 48 hours) was 20 µM and the EC50 (HEK-293 cells; Homo sapiens, HEK293, 48 h, read-out: Log [μM] EC50 (converted)) was 21.4 µM. The cell cycle effect (Rosi cells [3]) was “induced G2/M-phase arrest”, the cell cycle effect (MCF7 cells [4]) was “induced G0/G1 arrest” and the cell cycle effect (MDA-MB-231 cells [5]) was “induced G2/M-phase arrest”. For the same compound, the clonogenic colony formation (Rosi cells [6]) was “inhibited colony formation”, the clonogenic colony formation (MCF7 cells [7]) was “inhibited to a lesser extent” and the clonogenic colony formation (MDA-MB-231 cells [8]) was “inhibited colony formation”. The EC50 (Rosi cells [9]; Homo sapiens, 48 h, read-out: Log [μM] EC50 (converted)) was 21900 µM, the “concentration at which survival was significantly inhibited” value (Rosi cells [9]; Rosi, 48 hours) was 20 µM and the EC50 (MCF7 cells [10]; Homo sapiens, MCF7, 48 h, read-out: Log [μM] EC50 (converted)) was 45.7 µM. The inhibition of survival (MCF7 cells [10]; MCF7, concentrations tested 50-0.31 μM, 48 hours) was “Neither LB-100 nor Compound 2 significantly inhibited survival” and the EC50 (MDA-MB-231 cells [11]) was 6.76 µM.
With `O=C(COc1cccc2ccccc12)Nc1ccccc1O` [Compound 1, N-(2-Hydroxyphenyl)-2-(1-naphthalenyloxy)acetamide] the solubility kinetic (Kinetic solubility) was 27.1 µM (≈ 7.95 µg/mL), the PP2Ac methylation (Rosi cells [12]) was “did not increase PP2Ac methylation” and the PP2Ac methylation (MCF7 cells [13]) was “did not increase PP2Ac methylation”. The PP2Ac methylation (MDA-MB-231 cells [14]) was “did not increase PP2Ac methylation”, the fraction unbound (Plasma protein binding) was 0.033 and the half-life (Plasma stability) was > 180 min. For the same compound, the “methylation of rhPP2Ac by rhLCMT-1” value (rhLCMT-1) was “did not significantly inhibit PP2Ac methylation”, the half-life ([15]; human liver microsomes, read-out: Liver Microsomal Stability (t1/2) Human) was 45.7 min and the half-life ([15]; mouse liver microsomes, read-out: Liver Microsomal Stability (t1/2) Mouse) was 20 min.

From patent US20250320190A1, “Novel Inhibitors of Leucine Carboxyl Methyltransferase-1 (LCMT-1) and Methods of Use Thereof” (Temple University-Of The Commonwealth System of Higher …, priority 2024, published 2025)
